Laboratory results from ChEMBL document CHEMBL1201862, “PubChem BioAssay data set” (2004).
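Grown in 96-well plates, cells were treated for 48 hours with each compound at five concentrations. Insufficient inhibition: endpoint recorded as highest concentration tested. At the GI50, growth is halved.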 The source made the active and inactive calls. Cut-off read from the data, not from the text of the source: active = GI50 up to about 1.1 µM and inactive = higher.

How the values were obtained:
Assay in all cases: inhibition of tumour cell growth, NCI panel, 48 h
[1] = test system: M14
[2] = test system: HOP-92
[3] = test system: MDA-N
[4] = test system: 786-0
[5] = test system: MCF7
[6] = test system: T47D
[7] = test system: TK-10
[8] = test system: UO-31
[9] = test system: SF-539
[10] = test system: HL-60
[11] = test system: A549
[12] = test system: SF-295
[13] = test system: SK-MEL-28
[14] = test system: MOLT-4
[15] = test system: SNB-19
[16] = test system: SN12C
[17] = test system: OVCAR-4
[18] = test system: K562
[19] = test system: SK-MEL-2

| SMILES | GI50 [1] | GI50 [2] | GI50 [3] | GI50 [4] | GI50 [5] | GI50 [6] | GI50 [7] | GI50 [8] | GI50 [9] | GI50 [10] | GI50 [11] | GI50 [12] | GI50 [13] | GI50 [14] | GI50 [15] | GI50 [16] | GI50 [17] | GI50 [18] | GI50 [19] |
| --- | --- | --- | --- | --- | --- | --- | --- | --- | --- | --- | --- | --- | --- | --- | --- | --- | --- | --- | --- |
| CC(NC(=O)C(Cc1ccc(OC(=O)c2ccccc2)cc1)NC(=O)OC(C)(C)C)C(=O)NCC(=O)NC(Cc1ccccc1)C(=O)NN (stereo not given) | 35.1 µM (inactive) | 98.2 µM (inactive) | 37.1 µM (inactive) | > 100 µM (inactive) | 40.9 µM (inactive) | 62.8 µM (inactive) | 70.3 µM (inactive) | > 100 µM (inactive) | > 100 µM (inactive) | 16 µM (inactive) | > 100 µM (inactive) | 46.9 µM (inactive) | 35.7 µM (inactive) | 17.9 µM (inactive) | 45.6 µM (inactive) | > 10 µM (inactive) | 96.8 µM (inactive) | 20 µM (inactive) | – |
| COc1nc2ccc(CNc3ccc(C(=O)O)cc3)cc2nc1OC | > 10 µM (inactive) | – | > 10 µM (inactive) | > 10 µM (inactive) | > 10 µM (inactive) | > 10 µM (inactive) | > 10 µM (inactive) | – | > 10 µM (inactive) | > 10 µM (inactive) | > 10 µM (inactive) | > 10 µM (inactive) | > 10 µM (inactive) | > 10 µM (inactive) | > 10 µM (inactive) | > 10 µM (inactive) | > 10 µM (inactive) | > 10 µM (inactive) | > 10 µM (inactive) |
| Cc1cc2nc3ccccc3n2c2ccccc12 | > 10 µM (inactive) | – | > 10 µM (inactive) | > 10 µM (inactive) | > 10 µM (inactive) | > 10 µM (inactive) | > 10 µM (inactive) | – | > 10 µM (inactive) | > 10 µM (inactive) | > 10 µM (inactive) | > 10 µM (inactive) | > 10 µM (inactive) | > 10 µM (inactive) | > 10 µM (inactive) | > 10 µM (inactive) | > 10 µM (inactive) | > 10 µM (inactive) | > 10 µM (inactive) |
| OC(C1CCCCCCCCCC1)C(O)C1CCCCCCCCCC1 (stereo not given) | > 100 µM (inactive) | – | > 100 µM (inactive) | > 100 µM (inactive) | > 100 µM (inactive) | > 100 µM (inactive) | > 100 µM (inactive) | > 100 µM (inactive) | > 100 µM (inactive) | > 100 µM (inactive) | > 100 µM (inactive) | > 100 µM (inactive) | > 100 µM (inactive) | 37.1 µM (inactive) | > 100 µM (inactive) | > 100 µM (inactive) | > 100 µM (inactive) | 55.1 µM (inactive) | > 100 µM (inactive) |
| Clc1ccc(Cl)c(Nc2ccnc(SCc3ccccc3)n2)c1 | 70 µM (inactive) | > 100 µM (inactive) | > 100 µM (inactive) | > 100 µM (inactive) | > 100 µM (inactive) | 32.4 µM (inactive) | > 100 µM (inactive) | > 100 µM (inactive) | > 100 µM (inactive) | – | > 100 µM (inactive) | > 100 µM (inactive) | > 100 µM (inactive) | > 100 µM (inactive) | > 100 µM (inactive) | > 100 µM (inactive) | > 100 µM (inactive) | > 100 µM (inactive) | > 100 µM (inactive) |
| COC1=C(Br)[C@H](O)[C@@]2(C=C1Br)CC(C(=O)NCCCCCNC(=N)N)=NO2 [APLYSINAMISINE II] | > 10 µM (inactive) | – | > 10 µM (inactive) | > 10 µM (inactive) | > 10 µM (inactive) | > 10 µM (inactive) | > 10 µM (inactive) | > 10 µM (inactive) | > 10 µM (inactive) | > 10 µM (inactive) | > 10 µM (inactive) | > 10 µM (inactive) | > 10 µM (inactive) | > 10 µM (inactive) | > 10 µM (inactive) | > 10 µM (inactive) | > 10 µM (inactive) | > 10 µM (inactive) | > 10 µM (inactive) |
| Cc1cc(=O)[nH]c(-n2[nH]c(C)c(CCO)c2=O)n1 | > 100 µM (inactive) | – | > 100 µM (inactive) | > 100 µM (inactive) | > 100 µM (inactive) | > 100 µM (inactive) | > 100 µM (inactive) | > 100 µM (inactive) | > 100 µM (inactive) | > 100 µM (inactive) | > 100 µM (inactive) | > 100 µM (inactive) | > 100 µM (inactive) | – | > 100 µM (inactive) | > 100 µM (inactive) | > 100 µM (inactive) | > 100 µM (inactive) | > 100 µM (inactive) |
| N#CCC1C2CC3C(C2=O)C13 (stereo not given) | > 100 µM (inactive) | > 100 µM (inactive) | > 100 µM (inactive) | > 100 µM (inactive) | > 100 µM (inactive) | > 100 µM (inactive) | > 100 µM (inactive) | > 100 µM (inactive) | > 100 µM (inactive) | – | > 100 µM (inactive) | > 100 µM (inactive) | > 100 µM (inactive) | > 100 µM (inactive) | > 100 µM (inactive) | > 100 µM (inactive) | > 100 µM (inactive) | > 100 µM (inactive) | > 100 µM (inactive) |
| COc1ccc(CCN2CCN(CCCc3ccccc3)CC2)cc1 | 86.9 µM (inactive) | – | > 100 µM (inactive) | > 100 µM (inactive) | > 100 µM (inactive) | 34 µM (inactive) | 64.4 µM (inactive) | 55.6 µM (inactive) | > 100 µM (inactive) | > 100 µM (inactive) | > 100 µM (inactive) | > 100 µM (inactive) | > 100 µM (inactive) | 92 µM (inactive) | > 100 µM (inactive) | > 100 µM (inactive) | 71.6 µM (inactive) | 38.6 µM (inactive) | > 100 µM (inactive) |
| COC(=O)c1cc(C(=O)OC)cc(-c2ccc3c(c2)-c2nc4c(c(-c5ccc(OC)cc5)c2CC3)CCc2ccc(-c3cc(C(=O)OC)cc(C(=O)OC)c3)cc2-4)c1 | > 100 µM (inactive) | > 100 µM (inactive) | > 100 µM (inactive) | > 100 µM (inactive) | > 100 µM (inactive) | > 100 µM (inactive) | > 100 µM (inactive) | > 100 µM (inactive) | – | – | > 100 µM (inactive) | > 100 µM (inactive) | > 100 µM (inactive) | – | > 100 µM (inactive) | > 100 µM (inactive) | > 100 µM (inactive) | 0.061 µM (active) | > 100 µM (inactive) |
| Cc1cc(=O)oc2c(C)c3oc(CBr)c(Br)c3cc12 | 22 µM (inactive) | – | 30.4 µM (inactive) | 14.4 µM (inactive) | 33.1 µM (inactive) | 24.2 µM (inactive) | 56.4 µM (inactive) | 18.6 µM (inactive) | 37.6 µM (inactive) | 85.1 µM (inactive) | 17.4 µM (inactive) | 17.2 µM (inactive) | 44.4 µM (inactive) | 8.59 µM (inactive) | 31.6 µM (inactive) | 20.1 µM (inactive) | 28.5 µM (inactive) | 19.6 µM (inactive) | 36.1 µM (inactive) |
| Oc1c(Br)cc(Br)cc1CN(Cc1cc(Br)cc(Br)c1O)C1CCCCC1 | 34.3 µM (inactive) | 32.5 µM (inactive) | 35.9 µM (inactive) | 41.1 µM (inactive) | 25.5 µM (inactive) | 32.4 µM (inactive) | 26.4 µM (inactive) | 31.7 µM (inactive) | – | – | 30.9 µM (inactive) | 21.2 µM (inactive) | 48.1 µM (inactive) | 43.4 µM (inactive) | 33.6 µM (inactive) | 33.2 µM (inactive) | 46.9 µM (inactive) | 31.6 µM (inactive) | 20.2 µM (inactive) |
| CC(C)C1CN1CC(O)Cn1ccnc1[N+](=O)[O-] (stereo not given) | > 100 µM (inactive) | – | > 100 µM (inactive) | > 100 µM (inactive) | > 100 µM (inactive) | > 100 µM (inactive) | > 100 µM (inactive) | > 100 µM (inactive) | > 100 µM (inactive) | > 10 µM (inactive) | > 100 µM (inactive) | > 100 µM (inactive) | > 100 µM (inactive) | > 100 µM (inactive) | > 100 µM (inactive) | > 100 µM (inactive) | > 100 µM (inactive) | > 100 µM (inactive) | > 100 µM (inactive) |
| O=C(NC/C=C/Br)NC1CCNc2ccccc21 (stereo not given) | 17.7 µM (inactive) | – | 31.9 µM (inactive) | 26.6 µM (inactive) | 19.3 µM (inactive) | 36.5 µM (inactive) | 42.3 µM (inactive) | 27.8 µM (inactive) | 20.5 µM (inactive) | 32.1 µM (inactive) | 32.2 µM (inactive) | 45.4 µM (inactive) | 33.7 µM (inactive) | 56.8 µM (inactive) | 41.3 µM (inactive) | 45.4 µM (inactive) | 72.1 µM (inactive) | 30.1 µM (inactive) | 30.1 µM (inactive) |
| CCN(CCCN(CC)C(=O)Nc1c(C)cccc1C)C(=O)Nc1c(C)cccc1C | > 100 µM (inactive) | > 100 µM (inactive) | > 100 µM (inactive) | > 100 µM (inactive) | > 100 µM (inactive) | 35.4 µM (inactive) | > 100 µM (inactive) | 92.3 µM (inactive) | – | – | > 100 µM (inactive) | > 100 µM (inactive) | > 100 µM (inactive) | > 100 µM (inactive) | > 100 µM (inactive) | > 100 µM (inactive) | > 100 µM (inactive) | > 100 µM (inactive) | > 100 µM (inactive) |
| CCOC(=O)c1nc[nH]c1/N=N/N(C)N | > 100 µM (inactive) | – | > 100 µM (inactive) | 84.7 µM (inactive) | 98.4 µM (inactive) | 20.8 µM (inactive) | > 100 µM (inactive) | > 100 µM (inactive) | > 100 µM (inactive) | 29.2 µM (inactive) | > 100 µM (inactive) | 91.2 µM (inactive) | > 100 µM (inactive) | 44.2 µM (inactive) | – | > 100 µM (inactive) | > 100 µM (inactive) | > 10 µM (inactive) | > 100 µM (inactive) |
